pEC50: −log10 of the molar value.
Molecular target: Glycogen synthase kinase-3 beta (Homo sapiens, UniProt P49841)
Experiment: concentration-response blocking of human GSK3B – biochemical, luminescence, cell-free homogeneous, retest, dose response (AID 434954)

Chain of Glycogen synthase kinase-3 beta (P49841 whole entry): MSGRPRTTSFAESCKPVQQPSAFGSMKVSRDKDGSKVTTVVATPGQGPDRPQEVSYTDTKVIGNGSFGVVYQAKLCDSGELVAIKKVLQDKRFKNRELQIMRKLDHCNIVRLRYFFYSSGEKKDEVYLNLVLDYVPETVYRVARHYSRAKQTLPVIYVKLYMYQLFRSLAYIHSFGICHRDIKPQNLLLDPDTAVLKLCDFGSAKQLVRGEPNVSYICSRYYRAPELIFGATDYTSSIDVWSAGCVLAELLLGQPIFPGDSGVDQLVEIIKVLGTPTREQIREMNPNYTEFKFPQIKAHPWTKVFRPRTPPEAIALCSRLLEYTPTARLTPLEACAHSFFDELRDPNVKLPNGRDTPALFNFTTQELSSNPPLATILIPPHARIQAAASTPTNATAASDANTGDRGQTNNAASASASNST

Row | SMILES | pEC50
1 | CCCc1cc(=O)oc2cc(C)cc(O)c12 [5-hydroxy-7-methyl-4-propyl-1-benzopyran-2-one] | < 3.52
2 | O=C(O)/C=C/C(=O)NCC1CCC(CNC(=O)/C=C/C(=O)O)CC1 (centres undefined) [(E)-4-[[4-[[[(E)-3-carboxy-1-oxoprop-2-enyl]amino]methyl]cyclohexyl]methylamino]-4-oxo-2-butenoic acid] | < 3.52
3 | CCc1ccc(C=NNC(=O)c2nnn(-c3nonc3N)c2CN2CCOCC2)cc1 | < 3.52
4 | COc1ccc2occ(C(C)=O)c2c1 [1-(5-methoxy-3-benzofuranyl)ethanone] | < 3.52
5 | CCOC(=O)COn1c(=O)c(-c2cccs2)[n+]([O-])c2ccccc21 | < 3.52
6 | C=CCNC(=O)c1ccc(OC)cc1OC | < 3.52
7 | C[C@]12C=CC(=O)C=C1CC[C@@H]1C2C(O)C[C@@]2(C)C1CC[C@]2(O)C(=O)COC(=O)CCC(=O)O (stereo partly drawn) [4-[2-[(8S,10R,11S,13S,17R)-11,17-dihydroxy-10,13-dimethyl-3-oxo-7,8,9,11,12,14,15,16-octahydro-6H-cyclopenta[a]phenanthren-17-yl]-2-oxoethoxy]-4-oxobutanoic acid] | < 3.52
8 | CC(C)[C@H](CO)Nc1nc(NCc2ccc(S(N)(=O)=O)cc2)c2ncn(C(C)C)c2n1 [4-[[[2-[[(2R)-1-hydroxy-3-methylbutan-2-yl]amino]-9-propan-2-yl-6-purinyl]amino]methyl]benzenesulfonamide] | 4.40
9 | CCn1c(SCC(=O)Nc2ccc(F)cc2)nnc1C1CC1 [2-[(5-cyclopropyl-4-ethyl-1,2,4-triazol-3-yl)sulfanyl]-N-(4-fluorophenyl)ethanamide] | < 3.52
10 | CN(C)CC(=O)N1c2ccccc2Sc2ccc(Cl)cc21 | < 3.52
11 | COC(=O)c1cc(C(=O)Nc2cc(C)ccn2)cc([N+](=O)[O-])c1 [methyl 3-{[(4-methyl-2-pyridinyl)amino]carbonyl}-5-nitrobenzoate] | < 3.52
12 | CSc1nc2c(c(=O)[nH]1)C(c1ccccc1)C1C(=O)CC(C)(C)CC1=N2 (centres undefined) [8,8-dimethyl-2-(methylthio)-5-phenyl-5,8,9,10-tetrahydropyrimido[4,5-b]quinoline-4,6(3H,7H)-dione] | < 3.52
13 | CCOC(=O)c1sc(NC(=O)CCN2C(=O)c3cccc([N+](=O)[O-])c3C2=O)c(C(=O)OCC)c1C [3-methyl-5-[[3-(4-nitro-1,3-dioxo-2-isoindolyl)-1-oxopropyl]amino]thiophene-2,4-dicarboxylic acid diethyl ester] | < 3.52
14 | CC(C)CCNc1nc(N)c([N+](=O)[O-])c(NC2CCCCC2)n1 | < 3.52
15 | COc1ccc(Oc2c(C)oc3c(CN(C)C)c(O)ccc3c2=O)cc1 | < 3.52
16 | CCN(CC)S(=O)(=O)c1ccc(O)c(C(=O)OCC(=O)Nc2cc(C)c(C)cc2[N+](=O)[O-])c1 | < 3.52
17 | CCOC(=O)CC(=O)CSc1ccc2nnc(-c3ccc(F)cc3)n2n1 [ethyl 4-{[3-(4-fluorophenyl)[1,2,4]triazolo[4,3-b]pyridazin-6-yl]thio}-3-oxobutanoate] | 4.08
18 | CCSc1nnc(-c2cccs2)o1 [2-ethylsulfanyl-5-thiophen-2-yl-1,3,4-oxadiazole] | < 3.52
19 | OC1(C#CCN2CCOCC2)CCCCC1 | < 3.52
20 | C=CCN(c1ccc(C(=O)Nc2ccc(C)c(C)c2)cc1)S(C)(=O)=O [N-(3,4-dimethylphenyl)-4-[methylsulfonyl(prop-2-enyl)amino]benzamide] | < 3.52
21 | c1ccc(CCNCC2COc3ccccc3O2)cc1 (centres undefined) | < 3.52
22 | Cc1cn(C2OC(COC(=O)c3ccccc3)C(O)C2O)c(=O)[nH]c1=O (centres undefined) [benzoic acid [3,4-dihydroxy-5-(5-methyl-2,4-dioxo-1-pyrimidinyl)-2-oxolanyl]methyl ester] | 4.72

Row | SMILES | pEC50
23 | COc1cccc(-c2ccc3nnc(SCC(=O)Nc4ccc(NC(C)=O)cc4)n3n2)c1 [N-(4-acetamidophenyl)-2-[[6-(3-methoxyphenyl)-[1,2,4]triazolo[4,3-b]pyridazin-3-yl]sulfanyl]ethanamide] | < 3.52
24 | N#Cc1c(Nc2ccccc2)sc(C(=O)c2ccccc2)c1N [4-azanyl-2-phenylazanyl-5-(phenylcarbonyl)thiophene-3-carbonitrile] | 4.28
25 | Nc1nc(NCCOCCO)nc(NCC2CCCO2)c1[N+](=O)[O-] (centres undefined) | 4.78
26 | CCSc1nc(-c2ccccc2)c(C#N)c(=O)[nH]1 [2-ethylsulfanyl-4-oxidanylidene-6-phenyl-1H-pyrimidine-5-carbonitrile] | < 3.52
27 | COc1ccc(Nc2nc(NCC3CCCO3)nc(N)c2[N+](=O)[O-])cc1 (centres undefined) [N'-(4-Methoxy-phenyl)-5-nitro-N-(tetrahydro-furan-2-ylmethyl)-pyrimidine-2,4,6-triamine] | < 3.52
28 | CC(C)N1CC(C(=O)Nc2ccc(Br)c(Cl)c2)CC1=O (centres undefined) [N-(4-bromo-3-chlorophenyl)-5-oxo-1-propan-2-yl-3-pyrrolidinecarboxamide] | < 3.52
29 | COc1ccc(N2CC(C(=O)Nc3cc(C)ccn3)CC2=O)cc1 (centres undefined) [1-(4-methoxyphenyl)-N-(4-methylpyridin-2-yl)-5-oxopyrrolidine-3-carboxamide] | 4.33
30 | COC(=O)c1ccc(NC(=O)CCN2CCN(Cc3ccccc3)CC2)cc1 [4-[3-(4-Benzyl-piperazin-1-yl)-propionylamino]-benzoic acid methyl ester] | < 3.52
31 | c1ccc(-c2nc(NCc3cccnc3)c3ccccc3n2)cc1 | < 3.52
32 | Cc1ccc(S(=O)(=O)CC(=O)Nc2ncc([N+](=O)[O-])s2)cc1 [2-(4-methylphenyl)sulfonyl-N-(5-nitro-1,3-thiazol-2-yl)acetamide] | < 3.52
33 | CCSc1nc2sc3c(c2c(=O)n1-c1ccccc1)CCN(C)C3 [2-Ethylsulfanyl-7-methyl-3-phenyl-5,6,7,8-tetrahydro-3H-9-thia-1,3,7-triaza-fluoren-4-one] | < 3.52
34 | COc1ccc(-c2csc(N3CCOCC3)n2)cc1OC | < 3.52
35 | O=C1Nc2cc(C(=O)NCCCN3CCOCC3)ccc2S/C1=C/c1cccc(Cl)c1 [(2E)-2-[(3-chlorophenyl)methylidene]-N-(3-morpholin-4-ylpropyl)-3-oxidanylidene-4H-1,4-benzothiazine-6-carboxamide] | 4.82
36 | CN(C)C=NC(=O)C(C#N)C1=Nc2ccccc2CC1 (centres undefined) | 4.70
37 | Nc1ccc2oc(-c3ccccc3Cl)cc(O)c-2c1=O [6-amino-2-(2-chlorophenyl)-5-hydroxy-1-benzopyran-4-one] | < 3.52
38 | O=C1CN(C(=O)c2ccco2)c2ccccc2N1 [4-(Furan-2-carbonyl)-3,4-dihydro-1H-quinoxalin-2-one] | < 3.52
39 | COc1ccc(C(=O)c2sc(Nc3ccc(NC(C)=O)cc3)nc2C)cc1 [N-{4-[5-(4-Methoxy-benzoyl)-4-methyl-thiazol-2-ylamino]-phenyl}-acetamide] | < 3.52
40 | COc1ccc(CN(CC(=O)NCc2ccc(F)cc2)C(=O)CCC(=O)Nc2ccccn2)cc1 [N-[(4-Fluoro-benzylcarbamoyl)-methyl]-N-(4-methoxy-benzyl)-N'-pyridin-2-yl-succinamide] | < 3.52
41 | COc1cccc(C(N)=O)c1 | < 3.52
42 | C[C@H]1CCCC(=O)CCCC=Cc2cc(O)cc(O)c2C(=O)O1 [(11S)-11-methyl-15,17-bis(oxidanyl)-12-oxabicyclo[12.4.0]octadeca-1(18),2,14,16-tetraene-7,13-dione] | 5.26
43 | COc1ccc(C(=O)c2coc3ccc(O)c(CN4CCCCC4)c23)cc1 [[5-hydroxy-4-(piperidin-1-ylmethyl)-1-benzofuran-3-yl]-(4-methoxyphenyl)methanone] | < 3.52

Continued, values first:

Row | pEC50 | SMILES
44 | < 3.52 | CCOC(=O)C1C(C)=Nc2ncnn2C1/C=C/c1ccccc1 (centres undefined) [MLS000089169]
45 | < 3.52 | Cc1ccsc1C1NC(=O)c2c(sc3c2CCCC3)N1 (centres undefined) [MLS000027648]
46 | < 3.52 | CCOc1ccc(OCC)c(NC(=O)CSc2nnc(C3CC3)n2CC)c1 [MLS001223718]
47 | 4.49 | Fc1cccc(Nc2ncnc3n[nH]cc23)c1 [MLS001033418]
48 | 4.69 | Clc1ccc(CN=Nc2ncnc3nc[nH]c23)cc1 [MLS000419189]
49 | < 3.52 | Cc1cccc(COc2ccc(/C=C3/C(=O)N(C)C(=S)N3C)cc2)c1 [MLS001164511]
50 | < 3.52 | CCN(CC)CCOC(=O)c1ccc(NC(=S)NC(=O)C=Cc2ccco2)cc1 [MLS001178772]
51 | 4.54 | CCOC(=O)c1cnc2ccc(OCC)cc2c1N1CCN(c2ccccc2)CC1 [SMR000130091]
52 | < 3.52 | CCc1nn(CC(=O)NCCN2CCN(C)CC2)c(=O)c2cc3c(OC)cccc3n12 [MLS001110984]
53 | 5.16 | O=C(c1ccccc1)c1ccc(NCCCn2ccnc2)c([N+](=O)[O-])c1 [SMR000588423]
54 | 6.07 | COCCCNc1nc(N)c([N+](=O)[O-])c(NC2CCCCC2)n1 [MLS001165157]
55 | 4.40 | COCc1c(C(=O)NN=Cc2ccncc2)nnn1-c1nonc1N [MLS001194772]
56 | < 3.52 | Nc1nnnn1/N=C/c1ccc(N2CCCCC2)c([N+](=O)[O-])c1 [SMR000174985]
57 | < 3.52 | CCn1c(SCC(=O)Nc2ccc(Cl)cc2)nnc1C1CC1 [MLS000115911]
58 | < 3.52 | CN(C)c1ccc(-c2nc3ccccc3n2C)cc1 [MLS000089904]
59 | < 3.52 | CN1CCc2c(sc3c2c(=O)n(-c2ccccc2)c2nnc(SCc4ccc(Cl)cc4)n32)C1 [SMR000045323]
60 | 4.91 | CN(C)CCCNc1ccc(-c2cc(Nc3cccc(Cl)c3)ncn2)cn1 [SMR000463569]
61 | < 3.52 | CCOC(=O)c1ccc2c(c1)[n+](CC)c(/C=C/N(C)c1ccccc1)n2CC [MLS000561766]
62 | 4.33 | CSc1nc2ncc3c(n2n1)CC1c2ccccc2CCN1C3=O (centres undefined) [SMR000169664]
63 | < 3.52 | COCCN(CCOC)Cc1c(O)ccc2c1O/C(=C\c1ccco1)C2=O [SMR000544009]
64 | < 3.52 | COC(CNc1nc(SC)nc2sc3c(c12)CCN(C)C3)OC [MLS001215082]
65 | < 3.52 | O=C(Cc1ccc([N+](=O)[O-])cc1)Nc1ccc2c(c1)C(=O)NC2=O [SMR000291894]
66 | < 3.52 | CC(C)c1ccc(NC2=CC(=O)CC(C)(C)C2)cc1 [SMR000558851]
67 | < 3.52 | CN(Cc1c(C(=O)NN=Cc2ccccc2F)nnn1-c1nonc1N)c1ccccc1 [MLS001141029]
68 | < 3.52 | CN(C)S(=O)(=O)c1cc(NC(=O)COC(=O)Cc2ccc(Br)cc2)ccc1Cl [SMR000243172]
69 | < 3.52 | NS(=O)(=O)c1cccc(NC(=O)COC(=O)/C(=C/c2cccs2)c2cccs2)c1 [SMR000242820]

— BindingDB's records for doi:10.7270/Q2TX3CTT (Broad Institute, 2010)
